We go through four compounds from patent publication US20220370456A1, “COMBINATION THERAPIES COMPRISING SHP2 INHIBITORS AND EGFR TYROSINE KINASE INHIBITORS” (HUYABIO International, LLC, priority 2021, published 2022).

Read-outs that look alike come from different tables or passages of the source.

The test system of assay [1] is NCI-H1975 (L858R/T790M/C797S) cells. In words: Cell viability assay (CellTiter-Glo), cell proliferation. To be noted: for IC50: NCI-H1975 (L858R/T790M/C797S), read on Day 5, CellTiter-Glo, read-out: Absolute IC50. It is filed as cell-based. On the procedure: (§1) Cell lines and maintenance: Both cell lines (HCC827-ER1 and NCI-H1975) used for in vitro and in vivo studies were supplied by Crown Biosciences cell bank. […] NCI-H1975 cells were maintained in RPMI medium supplemented with 10% heat inactivated fetal bovine serum+100 ug/mL Hygromyocin at 37° C. in an atmosphere of 5% CO2 in air. The tumor cells were routinely subcultured twice weekly. The cells growing in an exponential growth phase were used for the in vitro cell potency and in vivo efficacy studies.
(§2) Cell Viability Assay: For cell cytotoxicity assays, cells were plated in 96-well plates and plating densities were determined on the basis of Crown Biosciences Cell line Database. Cells were plated at 2000 cells/well. Twenty four hours after plating, cells were treated with inhibitors at the indicated compound concentrations. On Day 5, cells were lysed with CellTiter-Glo® Luminescent Cell Viability Assay reagent (Promega) and luminescence was read using the EnVision Multi-plate reader. To calculate IC50s, a dose-response curve is generated using a nonlinear regression model with a sigmoidal dose response. IC50s were automatically generated by GraphPad Prism 8.0. The formula of surviving rate is shown below:
(§3) The surviving rate (%)=((LumTest article−LumMedium control)/(LumNone treated−LumMedium control))×100
In general terms: ATP-based viability assays read luminescence as a measure of living cells.

Another assay has as its system HCC827-ER1 cells. Described as above. It is filed as cell-based. To be noted: for IC50: HCC827-ER1, read on Day 5, CellTiter-Glo, read-out: Absolute IC50. On the procedure:
as §1, §2, §3

Another assay relates to HCC827-ER1 tumor. The experiment in a line: HCC827-ER1 tumor model, in vivo tumor volume. To be noted: HCC827-ER1 tumors in female Balb/C Nude animals, during treatment, FIG. 2A-B.

Experimental for HCC827-ER1 tumor: Animals (6-8 weeks) were obtained from Shanghai Lingchang Biotechnology Co., Ltd (Shanghai, China) and were allowed to acclimate prior to tumor cell inoculation.
All cell lines were maintained in culture and cells in exponential growth phase were harvested and quantitated by cell counter before tumor inoculation. HCC827-ER1 tumor cells (5×10^7) in 0.1 ml of PBS mixed with Matrigel (1:1) inoculated into female Balb/C Nude animals, mean tumor approximately 325 mm^3 at the start of treatment.
The date of randomization and treatment initiation was denoted as day 0. Tumor volumes were measured twice per week in two dimensions using a caliper, and the volume will be expressed in mm^3 using the formula: V=(L×W×W)/2, where V is tumor volume, L is tumor length (the longest tumor dimension) and W is tumor width (the longest tumor dimension perpendicular to L). Dosing volume was 10 mL/kg/day. GH21005 were dissolved in HP-β-CD was dissolved with 200 ml of 50 mM sodium citrate (pH=4.2). Anti-PD-1 and Rat IgG2a were diluted in PBS.
Upon termination, tumors were collected 2 hours post last dose.

With `N.N.[Cl][Pt][Cl]` [Cisplatin], the results for the IC50 (in assay [1]; in the assay with HCC827-ER1 cells) were 10.3 µM and 7.17 µM, respectively.

On to `C[C@H]1OCC2(CCN(c3cnc(Sc4ccnc(N)c4Cl)c(N)n3)CC2)[C@H]1N` [GH21001(TNO-155)], for which the half-inhibitory concentration (IC50) (in general, the concentration at which inhibition is half-maximal) in assay [1] (Homo sapiens, 120 h) is greater than 10 µM; in the assay with HCC827-ER1 cells (120 h) it was 1.89 µM.

In the case of `C[C@@H]1OCC2(CCN(c3cnc(Sc4cccc(NC(=O)c5c(O)nc6n(c5=O)CCCC6)c4Cl)cn3)CC2)[C@@H]1N` [GH21005(HBI-2376), N-(3-((5-((3S,4S)-4-amino-3-methyl-2-oxa-8-azaspiro[4.5]decan-8-yl)pyrazin-2-yl)thio)-2-chlorophenyl)-2-hydroxy-4-oxo-6,7,8,9-tetrahydro-4H-pyrido[1,2-a]pyrimidine-3-carboxamide], the IC50 in assay [1] (Homo sapiens, 120 h) was 0.96 µM; in the assay with HCC827-ER1 cells (120 h) it was 0.08 µM. For the same compound, the “potency in cell proliferation assay compared to TNO-155 and RMC-4550” value is “superior potency” in assay [1] (NCI-H1975 cell model, FIG. 1B) and “superior potency” with HCC827-ER1 cells (HCC827-ER1 cell model, FIG. 1A). The “effect on tumor volume” value in the assay on HCC827-ER1 tumor was “did not result in a reduction of tumor volume”.

`C=CC(=O)Nc1cc(Nc2nccc(-c3cn(C)c4ccccc34)n2)c(OC)cc1N(C)CCN(C)C` [Osimertinib]: the IC50 turned out to be […] in assay [1] (Homo sapiens, 120 h) and 2.8 µM in the assay with HCC827-ER1 cells (120 h). For the same compound, the “effect on tumor volume” value in the assay with HCC827-ER1 tumor is “only a slight and temporary decrease in tumor volume, followed by growth in tumor volume”.
